What was measured:
Calu-3 [1] = test: relative viability EC50 (midpoint between 100% and the lowest measured viability); higher = less toxic; conditions: 72 h
U2OS [2] = test: as above; conditions: 72 h
A549-ACE2 [3] = test: drug-induced phospholipidosis relative to tamoxifen; higher = more phospholipidosis
Calu-3 [4] = test: cell viability relative to DMSO; higher = less toxic; conditions: 72 h
U2OS [5] = test: as above; conditions: 72 h
Caco-2 [6] = test: as above; conditions: 72 h
Vero E6 [7] = test: as above; conditions: 72 h
HepG2 [8] = test: as above; conditions: 72 h
[9] = test system: A549-ACE2 infected with SARS-CoV-2; test: SARS-CoV-2 infection rate relative to DMSO; higher = more infection; conditions: 24 h
A549-ACE2 [10] = test: phospholipidosis EC50; higher = less potent phospholipidosis inducer
[11] = test system: A549-ACE2 infected with SARS-CoV-2; test: morphology score (similarity to uninfected cells); higher = more like uninfected cells; conditions: 24 h
Calu-3 [12] = test: drug sensitivity score (DSS) for viability; higher = more toxic; extreme values may be limits of the assay; conditions: 72 h
U2OS [13] = test: as above; conditions: 72 h
Caco-2 [14] = test: as above; conditions: 72 h
Vero E6 [15] = test: as above; conditions: 72 h
HepG2 [16] = test: as above; conditions: 72 h
[17] = test system: A549-ACE2 infected with SARS-CoV-2; test: cell count relative to DMSO; higher = less toxic; conditions: 24 h
Vero E6 [18] = test: relative viability EC50 (midpoint between 100% and the lowest measured viability); higher = less toxic; conditions: 72 h

O=C(c1ccc(OCCN2CCCCC2)cc1)c1c(-c2ccc(O)cc2)sc2cc(O)ccc12 [raloxifene]
Conditions | drug sensitivity score | relative viability EC50 [µM]
Caco-2 [14] | 4.6 | –
Calu-3 [1] | – | > 10
Calu-3 [12] | 0.5 | –
HepG2 [16] | 1 | –
U2OS [2] | – | > 10
U2OS [13] | 0 | –
Vero E6 [15] | 2.3 | –

drug-induced phospholipidosis [%], A549-ACE2 [3]
Conditions | 0.3 µM | 0.833333 µM | 3.33333 µM | 6.66667 µM | 10 µM | 30 µM
24 h | -1.05 | -0.52 | 10.1 | 22.3 | 37.7 | -2.02
48 h | 3.44 | 1.43 | 14.5 | 28.6 | 41 | 26.2
72 h | 4.4 | 2.6 | 17.4 | 36 | 56 | –

Conditions | SARS-CoV-2 infection rate [%] | cell count [%] | cell viability [%] | morphology score | phospholipidosis EC50 [µM]
A549-ACE2 [10], 72 h | – | – | – | – | 29.8
Caco-2 [6], 1 nM | – | – | 108 | – | –
Caco-2 [6], 10 nM | – | – | 82.9 | – | –
Caco-2 [6], 100 nM | – | – | 100 | – | –
Caco-2 [6], 1000 nM | – | – | 78.3 | – | –
Caco-2 [6], 10000 nM | – | – | 60.9 | – | –
Calu-3 [4], 1 nM | – | – | 102 | – | –
Calu-3 [4], 10 nM | – | – | 92.4 | – | –
Calu-3 [4], 100 nM | – | – | 98.1 | – | –
Calu-3 [4], 1000 nM | – | – | 103 | – | –
Calu-3 [4], 10000 nM | – | – | 79.5 | – | –
HepG2 [8], 1 nM | – | – | 91.4 | – | –
HepG2 [8], 10 nM | – | – | 95.2 | – | –
HepG2 [8], 100 nM | – | – | 93.6 | – | –
HepG2 [8], 1000 nM | – | – | 101 | – | –
HepG2 [8], 10000 nM | – | – | 74.1 | – | –
U2OS [5], 1 nM | – | – | 93 | – | –
U2OS [5], 10 nM | – | – | 91.3 | – | –
U2OS [5], 100 nM | – | – | 97.7 | – | –
U2OS [5], 1000 nM | – | – | 95.4 | – | –
U2OS [5], 10000 nM | – | – | 89.9 | – | –
Vero E6 [7], 1 nM | – | – | 107 | – | –
Vero E6 [7], 10 nM | – | – | 98.8 | – | –
Vero E6 [7], 100 nM | – | – | 99.3 | – | –
Vero E6 [7], 1000 nM | – | – | 94.8 | – | –
Vero E6 [7], 10000 nM | – | – | 67.9 | – | –
[9], 0.1 µM | 99 | – | – | – | –
[9], 0.3 µM | 97 | – | – | – | –
[9], 1 µM | 104 | – | – | – | –
[9], 3 µM | 84 | – | – | – | –
[11], 0.1 µM | – | – | – | -0.07 | –
[11], 0.3 µM | – | – | – | 0.17 | –
[11], 1 µM | – | – | – | -0.1 | –
[11], 3 µM | – | – | – | 0.42 | –
[17], 0.1 µM | – | 94 | – | – | –
[17], 0.3 µM | – | 102 | – | – | –
[17], 1 µM | – | 97 | – | – | –
[17], 3 µM | – | 106 | – | – | –

CC/C(=C(\c1ccc(O)cc1)c1ccc(OCCN(C)C)cc1)c1ccccc1 [afimoxifene]
Conditions | drug sensitivity score | relative viability EC50 [µM]
Caco-2 [14] | 2.5 | –
Calu-3 [1] | – | 3.52
Calu-3 [12] | 3.7 | –
HepG2 [16] | 1.8 | –
U2OS [2] | – | > 10
U2OS [13] | 1.2 | –
Vero E6 [15] | 0.3 | –
Vero E6 [18] | – | > 10

drug-induced phospholipidosis [%], A549-ACE2 [3]
Conditions | 0.3 µM | 0.833333 µM | 3.33333 µM | 6.66667 µM | 10 µM | 30 µM
24 h | 3.39 | 11.5 | 51 | 69.1 | 81.9 | 36.9
48 h | 3.38 | 6.29 | 53.4 | 74.8 | 82.8 | –
72 h | 5.01 | 4.34 | 43.1 | 75.7 | 88.4 | –

Conditions | SARS-CoV-2 infection rate [%] | cell count [%] | cell viability [%] | morphology score | phospholipidosis EC50 [µM]
A549-ACE2 [10], 24 h | – | – | – | – | 1.78
A549-ACE2 [10], 48 h | – | – | – | – | 2.82
A549-ACE2 [10], 72 h | – | – | – | – | 3.95
Caco-2 [6], 1 nM | – | – | 93 | – | –
Caco-2 [6], 10 nM | – | – | 91.2 | – | –
Caco-2 [6], 100 nM | – | – | 95.5 | – | –
Caco-2 [6], 1000 nM | – | – | 94 | – | –
Caco-2 [6], 10000 nM | – | – | 66.6 | – | –
Calu-3 [4], 1 nM | – | – | 91.7 | – | –
Calu-3 [4], 10 nM | – | – | 103 | – | –
Calu-3 [4], 100 nM | – | – | 102 | – | –
Calu-3 [4], 1000 nM | – | – | 105 | – | –
Calu-3 [4], 10000 nM | – | – | 25.2 | – | –
HepG2 [8], 1 nM | – | – | 94.6 | – | –
HepG2 [8], 10 nM | – | – | 111 | – | –
HepG2 [8], 100 nM | – | – | 90.7 | – | –
HepG2 [8], 1000 nM | – | – | 112 | – | –
HepG2 [8], 10000 nM | – | – | 54.3 | – | –
U2OS [5], 1 nM | – | – | 96.8 | – | –
U2OS [5], 10 nM | – | – | 94.8 | – | –
U2OS [5], 100 nM | – | – | 102 | – | –
U2OS [5], 1000 nM | – | – | 97.2 | – | –
U2OS [5], 10000 nM | – | – | 77.6 | – | –
Vero E6 [7], 1 nM | – | – | 93.7 | – | –
Vero E6 [7], 10 nM | – | – | 98.9 | – | –
Vero E6 [7], 100 nM | – | – | 99.8 | – | –
Vero E6 [7], 1000 nM | – | – | 104 | – | –
Vero E6 [7], 10000 nM | – | – | 81.2 | – | –
[9], 0.3 µM | 112 | – | – | – | –
[9], 3 µM | 47 | – | – | – | –
[9], 10 µM | 13 | – | – | – | –
[9], 30 µM | 68 | – | – | – | –
[11], 0.3 µM | – | – | – | -0.03 | –
[11], 3 µM | – | – | – | 0.75 | –
[11], 10 µM | – | – | – | 0.83 | –
[11], 30 µM | – | – | – | -0.14 | –
[17], 0.3 µM | – | 99 | – | – | –
[17], 3 µM | – | 121 | – | – | –
[17], 10 µM | – | 117 | – | – | –
[17], 30 µM | – | 81 | – | – | –

Cc1ccc(NC(=O)c2ccc(CN3CCN(C)CC3)cc2)cc1Nc1nccc(-c2cccnc2)n1 [imatinib]
Conditions | morphology score, 0.3 µM | morphology score, 3 µM | morphology score, 10 µM | morphology score, 30 µM | phospholipidosis EC50, 24 h [µM] | phospholipidosis EC50, 48 h [µM] | phospholipidosis EC50, 72 h [µM]
A549-ACE2 [10] | – | – | – | – | 6.11 | 13 | 10
[11] | 0.28 | 0.55 | 0.73 | -0.03 | – | – | –

Conditions | drug sensitivity score
Calu-3 [12] | 0.1
HepG2 [16] | 2.4
U2OS [13] | 0
Vero E6 [15] | 0

Source: the supplement of paper PMC13380429
